Measurements published in publication PMC5374206, “Anti-bacterial and Anti-biofilm Evaluation of Thiazolopyrimidinone Derivatives Targeting the Histidine Kinase YycG Protein of Staphylococcus epidermidis” (Frontiers in Microbiology, 2017).
Converted amounts (≈) assume the structure as drawn.

How the values were obtained:
[1] = test system: S. epidermidis ATCC 35984 mature biofilms; parameters: method as in Liu et al., 2014; settings: vancomycin 128 μg/mL; ref Liu et al., 2014; cited from earlier work
[2] = test system: S. epidermidis ATCC 35984; test: Time-kill assay against fast-growing S. epidermidis; type: cell-based, Staphylococcus epidermidis; settings: 4 × MIC
Description: Suspensions of S. epidermidis (1 × 10^7 CFU/mL) were prepared and separately treated with the derivatives of compound 5 or vancomycin at concentrations of 4 × MIC in fresh MHB. Time-kill experiments were performed at 37°C with shaking at 220 rpm under aerobic conditions. Aliquots (1 mL) were removed from the culture medium at different time points (0, 1, 3, 5, 8, and 24 h), serially diluted and 100 μL of each of the dilutions plated out onto tryptic soy agar. After incubating at 37°C for 24 h, emergent bacterial colonies were counted, and the activity of the derivatives against fast-growing S. epidermidis cells was determined by plotting log10 colony counts (CFU/mL) against time. Bactericidal activity was defined as a 3-log10 decrease in CFU/mL. This assay was performed in triplicate and similar results were obtained.

[3] = test system: S. epidermidis ATCC 35984 mature biofilms; test: Cell viability in mature (24 h) biofilms by CLSM with Live/Dead staining; type: cell-based, Staphylococcus epidermidis; settings: 4 × MIC, 16 h, 24 h mature biofilm; for PI fluorescence quantity (dead cells) / SYTO9 fluorescence quantity (viable cells): Image J
Description: The effect of the derivatives on cell viability in mature biofilms (24 h old) was determined using the Live/Dead Bacterial Viability method (Live/Dead BacLight, Molecular Probes, USA). […] The mature biofilms were stained with SYTO 9 and propidium iodide at room temperature for 15 min, following gentle washing of the dishes with normal saline, and were observed under a Leica TCS SP5 CLSM with a 63 × 1.4-NA oil-immersion objective. Further, image analysis was performed using IMARIS 7.0.0 software (Bitplane). The fluorescence quantities of biofilm were determined using Image J software. This assay was performed in triplicate and similar results were obtained.

[4] = Erythrocyte hemolysis assay; type: cell-based; settings: human, erythrocytes (5% suspension), 37°C; for hemolysis at 1 h, 200 µM: at 200 μM; for hemolysis at 1 h: at MIC (against S epidermidis ATCC 35984)
Description: Hemolytic activities of the derivatives were measured on healthy human erythrocytes. A pure suspension of erythrocytes was obtained by washing a blood sample with sterile 0.9% NaCl saline solution. Erythrocytes were resuspended in normal saline to give a 5% solution, then treated with MIC, 4 × MIC or 200 μM of the derivatives for 1 h at 37°C in 96-well microtiter plates. After the incubation and centrifugation at 1,000 g for 10 min, supernatants were transferred to another sterile plate and the absorbance at 570 nm was measured on a spectrophotometric microplate reader. A positive control (100% hemolysis) and a negative control (0% hemolysis) were achieved by incubating with 1% Triton-X 100 and 0.1% DMSO, respectively. Each assay was performed in triplicate and repeated three times.

[5] = test system: S. epidermidis ATCC 35984; test: MIC and MBC tube-dilution assay; type: cell-based; settings: Staphylococcus epidermidis; for MBC: ATCC35984, 99.9% reduction of inoculum; for MIC: ATCC35984, MHB, 16–20 h
Description: (§1) The MIC assays of the derivatives of compound 5 against S. epidermidis, S. aureus, MRSA and E. coli were performed by using the methods described previously by Wiegand et al. ([2008]). In brief, two-fold serial dilutions of the derivatives were prepared in tubes containing 4 mL MHB medium, yielding final concentrations from 200 to 0.78 μM. Bacterial cultures were grown overnight and adjusted so that the bacterial suspension turbidity was equivalent to a 0.5 McFarland standard (~1 × 10^8 CFU/mL) and further diluted to 1:200 into MHB medium. The contents in the tubes were mixed thoroughly and incubated at 37°C with shaking at 220 rpm for 16–20 h. The MIC endpoint was defined as the lowest concentration at which there was no visible growth in the tubes. The MBC values were assessed by plating 100 μL samples from each negative (no visible bacterial growth) culture tube from the MIC assays onto blank MHB agar plates. After incubation at 37°C for 24 h, the bacterial colonies on the plates were counted. The MBC was the concentration at which a 99.9% reduction of the original inoculum was observed (Pridmore et al., [2011]). In this assay, all the experiments were performed three times.

Cytotoxicity MTT assay = type: cell-based; settings: African green monkey, Vero cells, highest concentration tested 200 μM
Description: A Cell Proliferation Kit I (MTT; Roche, Indianapolis, USA) was used to detect the cytotoxicity of the derivatives against Vero cells. Vero cells were added to 96-well microtiter plates at a concentration of 5 × 10^4 cells/well in 100 μL of culture medium. After 24 h, culture medium was replaced by 100 μL serial dilutions of the derivatives (0.78–100 μM) and the cells were incubated for 4 h in an atmosphere of 5% CO2, then 10 μL of the MTT stock solution was added to each well and the plate returned to the 37°C incubator for 4 h. Subsequent to the incubation, the purple formazan salts were dissolved in DMSO, and the absorbance of each well was measured at wavelengths of 595 nm (test) and 655 nm (reference). Cells treated with the solvent (0.1% DMSO) were used as a blank control. The concentration of the derivatives that produced a 50% cytotoxicity effect on Vero cells (CC50) was calculated using Origin v8.0 software (Origin Lab, Northampton, USA).

E. coli ATCC 25922 = test: MIC tube-dilution assay; type: cell-based, Escherichia coli; settings: E. coli ATCC29522 (head), highest concentration used 200 μM
Description: as §1

S. aureus ATCC 49230 = test: MIC tube-dilution assay; type: cell-based; settings: Staphylococcus aureus, ATCC49230
Description: as §1

[6] = test system: S. epidermidis ATCC 12228; test: MIC tube-dilution assay; type: cell-based; settings: Staphylococcus epidermidis, ATCC12228
Description: as §1

YycG′ protein = biological target: T1, YycG′ protein (Staphylococcus epidermidis, UniProt Q5HK19); test: Inhibition of YycG′ autophosphorylation (Kinase-Glo Luminescent Kinase Assay); type: biochemical; settings: 4 μM ATP; for inhibition of the enzymatic activity of YycG′ protein: 100 μM derivative, 2 μg YycG′ protein; for IC50: Kinase-Glo, 2 μg YycG′, read-out: IC50 (inhibition of autophosphorylation of recombinant YycG′)
T1 construct: made in house; host or cells: E. coli BL21(DE3)
T1 sequence (Q5HK19 384-602 limits assumed): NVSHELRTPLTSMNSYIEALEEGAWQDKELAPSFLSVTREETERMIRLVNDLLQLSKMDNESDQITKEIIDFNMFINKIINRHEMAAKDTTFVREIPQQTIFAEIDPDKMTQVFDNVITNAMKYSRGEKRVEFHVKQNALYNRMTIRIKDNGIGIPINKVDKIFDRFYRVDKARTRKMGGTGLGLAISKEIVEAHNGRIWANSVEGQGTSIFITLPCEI
Description: The construction of the recombinant plasmid pET28a-YycG′ (containing the HATPase_c and HisKA domains of YycG) has been previously described (Liu et al., [2014]). After being used to transform E. coli strain BL21(DE3), this recombinant plasmid was induced to express YycG′ protein by 0.4 mM isopropyl-1-thio-β-D-galactopyranoside at 21°C for 12 h. Then, the bacterial cells were disrupted by sonication and centrifuged, the supernatant was purified by Ni–NTA agarose (Qiagen, Los Angeles, CA, USA). The inhibitory activities of the compound 5 derivatives on the ATPase activity of the YycG′ protein were measured using the Kinase-Glo™ Luminescent Kinase Assay (Promega, Madison, WI, USA). Briefly, 2 μg purified YycG′ protein was pre-incubated with a series of dilutions of the derivatives in reaction buffer [40 mM Tris (pH 7.5), 20 mM MgCl2 and 0.1 mg/ml BSA] at room temperature for 30 min, 4 μM ATP was added and incubated for 30 min at room temperature, then Kinase-Glo™ Reagent was added to detect the remaining amount of ATP, as reflected by luminescence intensity (RLU). In parallel, YycG′ protein with no addition of the derivatives was used as the control and ATP only was used as a blank. The rate of inhibition of protein phosphorylation (Rp) by the derivatives was calculated by the following equation: Rp = RLU(YycG^′+derivative+ATP+Kinase−Glo™)−RLU(YycG^′+ATP+Kinase−Glo™)/RLU(ATP+Kinase−Glo™)−RLU(YycG^′+ATP+Kinase−Glo™) × 100 IC50 (the concentration resulting in 50% inhibition of YycG′ protein autophosphorylation) was obtained by using Origin v7.0 software (OriginLab, Northampton, USA).

[7] = Escherichia coli, ATCC 25922 / ATCC 29522

Row | SMILES | reduction of living cells in mature biofilm [1] | time required to achieve a bactericidal effect ([2]; bactericidal = 3-log10 decrease in CFU/mL) | reduction in CFU/mL ([2]; within/after 1 h, inoculum ~1 × 10^7 CFU/mL, MHB) | PI/Total (reduction of the proportion of viable cells in mature biofilms) [3] | PI fluorescence quantity (dead cells) [3] | SYTO9 fluorescence quantity (viable cells) [3] | hemolysis at 1 h, 200 µM [4] | hemolysis at 1 h [4] | MBC [5] | MIC [5] | CC50 at 4 h (Cytotoxicity MTT assay) | MIC (E. coli ATCC 25922) | MIC (E. coli ATCC 25922; [7]) | MIC (S. aureus ATCC 49230) | MIC [6] | inhibition of the enzymatic activity of YycG′ protein (YycG′ protein) | IC50 (YycG′ protein)
1 | CN[C@H](CC(C)C)C(=O)N[C@H]1C(=O)N[C@@H](CC(N)=O)C(=O)N[C@H]2C(=O)N[C@H]3C(=O)N[C@H](C(=O)N[C@H](C(=O)O)c4cc(O)cc(O)c4-c4cc3ccc4O)[C@H](O)c3ccc(c(Cl)c3)Oc3cc2cc(c3O[C@@H]2O[C@H](CO)[C@@H](O)[C@H](O)[C@H]2O[C@H]2C[C@](C)(N)[C@H](O)[C@H](C)O2)Oc2ccc(cc2Cl)[C@H]1O [vancomycin, reference compound] | 11.4% | > 5 h | ~ 1 log | – | – | – | – | – | – | – | – | – | – | – | – | – | –
2 | CCOC(=O)C1=C(c2ccccc2)N=c2sc(=Cc3ccc(-c4cccc(C(=O)O)c4)o3)c(=O)n2C1c1ccc(Cl)cc1 (centres unmarked) [H5-23, 2-{5-(3-carboxy-phenyl)-furan-2-ylmethylene]-5-(4-chloro-phenyl)-3-oxo-7-phenyl-2,3-di-hydro-5H-thiazolo[3,2-a]pyrimidine-6-carboxylic acid ethyl ester] | – | – | – | 85.7% | 61.928 ± 5.05 | 10.333 ± 4.39 | 0.27 ± 0.01% | 0.27 ± 0.35% | 25 µM (≈ 15.3 µg/mL) | 1.56 µM (≈ 0.953 µg/mL) | > 200 µM | >200 µM | > 200 µM | 1.56 µM (≈ 0.953 µg/mL) | 1.56 µM (≈ 0.953 µg/mL) | 64.78% | 77.2 µM
3 | CCOC(=O)C1=C(c2ccccc2)N=c2s/c(=C\c3ccc(-c4cccc(C(=O)O)c4)o3)c(=O)n2C1c1ccc2c(c1)OCO2 (centres unmarked) [Compound 5, {5-benzo [1,3]dioxol-5-yl-2-[5-(3-carboxy-phenyl)-furan-2-ylmethylene]-3-oxo-7-phenyl-2,3-dihydro-5H-thiazolo [3,2-a]pyrimidine-6-carboxylic} acid ethyl ester] | – | – | – | – | – | – | 0.51 ± 0.06% | 0.31 ± 0.16% | 25 µM (≈ 15.5 µg/mL) | 6.25 µM (≈ 3.88 µg/mL) | > 200 µM | – | > 200 µM | 6.25 µM (≈ 3.88 µg/mL) | 6.25 µM (≈ 3.88 µg/mL) | – | –
4 | O=C(O)c1cccc(-c2ccc(C=c3sc4n(c3=O)C(c3ccc(Cl)cc3)C=C(c3ccccc3)N=4)o2)c1 (centres unmarked) [H5-25, 3-{5-[5-(4-chloro-phenyl)-3-oxo-7-phenyl-5H-thiazolo [3,2-a]pyrimidin-2-ylidenemethyl]-furan-2-yl}-benzoic acid] | – | – | – | 43.80% | 47.687 ± 4.77 | 61.188 ± 5.49 | 0.39 ± 0.09% | 0.27 ± 0.01% | 50 µM (≈ 27 µg/mL) | 1.56 µM (≈ 0.841 µg/mL) | > 200 µM | >200 µM | > 200 µM | 1.56 µM (≈ 0.841 µg/mL) | 1.56 µM (≈ 0.841 µg/mL) | 51.42% | 80.2 µM
5 | COc1ccc(C2C=C(c3ccccc3)N=c3sc(=Cc4ccc(-c5cccc(C(=O)O)c5)o4)c(=O)n32)cc1 (centres unmarked) [H5-24, 3-{5-[5-(4-methoxy-phenyl)-3-oxo-7-phenyl-5H-thiazolo[3,2-a]pyrimidin-2-ylidenemethyl]-furan-2-yl}-benzoic acid] | – | – | – | 77.5% | 43.242 ± 5.65 | 12.554 ± 4.23 | 0.32 ± 0.05% | 0.17 ± 0.11% | 50 µM (≈ 26.7 µg/mL) | 1.56 µM (≈ 0.834 µg/mL) | > 200 µM | >200 µM | > 200 µM | 1.56 µM (≈ 0.834 µg/mL) | 1.56 µM (≈ 0.834 µg/mL) | 49.92% | 82.2 µM
